The source of these data is ChEMBL document CHEMBL1201862, “PubChem BioAssay data set” (2004).

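Five concentrations, 48 hours, 96-well plates. GI50 = concentration required for 50% inhibition of growth.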 The source made the active and inactive calls. Rule as the data show it: active = GI50 up to about 1.1 µM and inactive = higher.

Test systems include SN12C; SF-295; U-251; ACHN; NCI-H460; LOX IMVI; Malme-3M; HCT-15; BT-549; TK-10; HOP-92; SF-539; DU-145; HT-29; SW-620; CCRF-CEM; NCI-H522; COLO 205; EKVX.
Assay in all cases: NCI-60 cell line screen, 48 h

Take `COC(=O)C1=C(C)NC2(O)C=CC(=O)C3C(=O)N(c4ccccc4)C(=O)C132` (configuration not stated): the GI50 in the assay on SN12C is > 100 µM (inactive); in the assay on SF-295, > 100 µM (inactive); with U-251 it was > 100 µM (inactive); in the assay on ACHN, > 100 µM (inactive); in the assay on NCI-H460, > 100 µM (inactive); in the assay with LOX IMVI, 67.3 µM (inactive). Further, the GI50 with Malme-3M was 37.8 µM (inactive); in the assay on HCT-15, 63 µM; with BT-549, 64.1 µM (inactive); in the assay on TK-10, > 100 µM (inactive); with HOP-92, 37.3 µM (inactive); with SF-539, > 100 µM (inactive). Moreover, the GI50 in the assay with DU-145 is > 100 µM (inactive); in the assay on HT-29 it was 23.3 µM (inactive); with SW-620, 56.5 µM (inactive); in the assay on CCRF-CEM it was 35 µM (inactive); in the assay with NCI-H522 it was 32.5 µM (inactive); with COLO 205, 36.5 µM (inactive). The GI50 in the assay with EKVX was > 100 µM (inactive).

As for `O=[N+]([O-])/C(Cl)=C/C(=C1/Nc2ccccc2O1)[N+](=O)[O-]`, the GI50 was 36.1 µM (inactive) in the assay with SN12C; 26.7 µM (inactive) in the assay with SF-295; 12.8 µM (inactive) in the assay with U-251; 18.1 µM (inactive) in the assay on ACHN; 31.5 µM (inactive) in the assay with NCI-H460; 8.13 µM (inactive) in the assay on LOX IMVI. Moreover, the GI50 is 14.3 µM (inactive) with Malme-3M; 16.6 µM in the assay on HCT-15; 16.3 µM (inactive) in the assay with BT-549; 44.1 µM (inactive) in the assay with TK-10; 24.7 µM (inactive) in the assay with HOP-92; 15.5 µM (inactive) in the assay with SF-539. The GI50 in the assay on DU-145 was 19.2 µM (inactive); in the assay with HT-29, 32.8 µM (inactive); in the assay with SW-620, 32.7 µM (inactive); in the assay on CCRF-CEM, 13.3 µM (inactive); in the assay with NCI-H522, 13.5 µM (inactive); in the assay with COLO 205, 21.2 µM (inactive). Further, the GI50 with EKVX is 18.8 µM (inactive).

In the case of `Cc1c(O)c(OC2OC(CO)C(O)C(O)C2O)cc2c1C=C[C@@H]1[C@@]2(C)C(=O)C[C@]2(C)[C@@H]([C@@](C)(O)C(O)/C=C/C(C)(C)O)[C@H](O)C[C@@]12C` (some centres not stated), the GI50 with SN12C, with SF-295, in the assay with U-251, with ACHN, with NCI-H460 and in the assay on LOX IMVI was > 100 µM (inactive) in each case. For the same compound, the GI50 is > 100 µM (inactive) in the assay on Malme-3M; more than 100 µM in the assay with HCT-15; > 100 µM (inactive) with BT-549; > 100 µM (inactive) with TK-10; > 100 µM (inactive) in the assay with HOP-92; > 100 µM (inactive) in the assay on SF-539. Moreover, the GI50 in the assay with DU-145, in the assay on HT-29, in the assay on SW-620, in the assay with CCRF-CEM, in the assay on NCI-H522 and in the assay on COLO 205 was > 100 µM (inactive) throughout. In the assay on EKVX, the GI50 is > 100 µM (inactive).

As for `COc1ccc(-c2nnc3n(Cc4ccccc4)c4ccccc4n3c2=O)cc1`, the GI50 in the assay with SN12C is 55 µM (inactive); in the assay on SF-295, 15.9 µM (inactive); in the assay with U-251, 19.9 µM (inactive); with ACHN it was 15.2 µM (inactive); with NCI-H460 it was 33.5 µM (inactive); with LOX IMVI, 49.9 µM (inactive). The GI50 in the assay with Malme-3M is 51.9 µM (inactive); with HCT-15, more than 100 µM; in the assay on BT-549 it was > 100 µM (inactive); with TK-10, 21.9 µM (inactive); in the assay with HOP-92, 19.4 µM (inactive); in the assay with SF-539 it was 13.2 µM (inactive). For the same compound, the GI50 in the assay on DU-145 was 59.4 µM (inactive); in the assay with HT-29 it was > 100 µM (inactive); in the assay with SW-620 it was > 100 µM (inactive); in the assay on CCRF-CEM, > 100 µM (inactive); in the assay on NCI-H522 it was 17.3 µM (inactive); with COLO 205 it was > 100 µM (inactive). In addition, the GI50 in the assay with EKVX is 29.8 µM (inactive).

Take `O=C(CCc1ccc(O)c(O)c1)NCCc1cc(O)c(O)c(O)c1`: the GI50 with SN12C is 17.9 µM (inactive); with SF-295, 19 µM (inactive); in the assay with U-251, 17.9 µM (inactive); in the assay on ACHN, 33.8 µM (inactive); in the assay on NCI-H460, 20.6 µM (inactive); with LOX IMVI, 17.7 µM (inactive). Besides, the GI50 in the assay on Malme-3M was > 100 µM (inactive); in the assay on HCT-15 it was 16.4 µM; in the assay with BT-549, 17 µM (inactive); in the assay with TK-10, > 100 µM (inactive); with HOP-92, > 100 µM (inactive); in the assay with SF-539 it was > 100 µM (inactive). In addition, the GI50 was 64.7 µM (inactive) with DU-145; 17.9 µM (inactive) in the assay on HT-29; 18.8 µM (inactive) in the assay with SW-620; 44.5 µM (inactive) with CCRF-CEM; 17.2 µM (inactive) in the assay on NCI-H522; 37.8 µM (inactive) in the assay with COLO 205. Besides, in the assay on EKVX, the GI50 was 22.9 µM (inactive).

`CC(=O)c1cc2c(s1)C(=O)c1sccc1C2=O`: the GI50 in the assay with SN12C is 0.0156 µM (active); in the assay on SF-295 it was 0.04 µM (active); in the assay on U-251, 0.017 µM (active); with ACHN, 0.0209 µM (active); in the assay on NCI-H460 it was 0.0908 µM (active); in the assay with LOX IMVI, 0.0102 µM (active). The GI50 is 0.0163 µM (active) in the assay on Malme-3M; 0.0214 µM in the assay with HCT-15; 0.0184 µM (active) in the assay with BT-549; 0.212 µM (active) in the assay with TK-10; 0.294 µM (active) in the assay with HOP-92; 0.0181 µM (active) in the assay with SF-539. In addition, the GI50 was 0.0553 µM (active) in the assay with DU-145; 0.202 µM (active) in the assay on HT-29; 0.0569 µM (active) with SW-620; 0.0392 µM (active) in the assay on CCRF-CEM; 0.0175 µM (active) in the assay on NCI-H522; 1.31 µM (inactive) in the assay with COLO 205. In the assay with EKVX, the GI50 was 0.118 µM (active).

With `CN(C)CCNC(=O)c1ccc2nc3c(nc2c1)C(=O)c1ccccc1-3`, the GI50 is 68.5 µM (inactive) with SN12C; 65.6 µM (inactive) with SF-295; 24.2 µM (inactive) with U-251; 47.1 µM (inactive) in the assay on ACHN; 18.5 µM (inactive) in the assay on NCI-H460; 29.9 µM (inactive) with LOX IMVI. The GI50 in the assay on Malme-3M was 25.2 µM (inactive); in the assay on HCT-15, 31.4 µM; in the assay with BT-549, 21.7 µM (inactive); in the assay on TK-10 it was > 100 µM (inactive); in the assay on HOP-92, 57.4 µM (inactive); in the assay on SF-539, 60.8 µM (inactive). Moreover, the GI50 in the assay on DU-145 was > 100 µM (inactive); in the assay on HT-29, 26.4 µM (inactive); in the assay with SW-620, 34.2 µM (inactive); in the assay with CCRF-CEM it was 9.75 µM (inactive); in the assay with NCI-H522 it was 30.9 µM (inactive); in the assay on COLO 205 it was 34.6 µM (inactive). In the assay on EKVX, the GI50 was > 100 µM (inactive).

With `CC(=O)CC1CCC(=O)/C=C/C(=O)OC(CC(C)=O)CCC(=O)/C=C/C(=O)O1` (configuration not stated), the GI50 was 8.55 µM (inactive) with SN12C; 13.6 µM (inactive) in the assay with SF-295; 21.4 µM (inactive) in the assay on U-251; 3.44 µM (inactive) in the assay on ACHN; 18.5 µM (inactive) with NCI-H460; 18.6 µM (inactive) in the assay on LOX IMVI. In addition, the GI50 with Malme-3M is 2.43 µM (inactive); with HCT-15, 2.1 µM; with BT-549 it was 3.2 µM (inactive); in the assay with TK-10, 7.35 µM (inactive); with HOP-92 it was 3.78 µM (inactive); in the assay with SF-539 it was 19.3 µM (inactive). Besides, the GI50 in the assay on DU-145 was 19.6 µM (inactive); in the assay on HT-29, 11.2 µM (inactive); with SW-620 it was 1.67 µM (inactive); in the assay with CCRF-CEM, 1.6 µM (inactive); with NCI-H522, 1.14 µM (inactive); with COLO 205, 1.77 µM (inactive). Also, in the assay on EKVX, the GI50 is 8.02 µM (inactive).
